Results taken from PubChem BioAssay (NCI).
Values joined by “and” are separate entries in the source; they are usually repeats but may differ in a detail not shown here. Equal entries are not always repeated.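 Cells were grown in 96-well plates and exposed to each compound for 48 hours at five concentrations; endpoints were interpolated linearly between bracketing concentrations, or set to the highest concentration if not reached. GI50 is the concentration that inhibits growth by half. TGI: total growth inhibition.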

Legend:
Assay in all cases: DTP human tumour cell line panel, 48 h
[1] = test system: OVCAR-5 ovarian
[2] = test system: MCF7 breast
[3] = test system: MDA-MB-231 breast
[4] = test system: HCT-15 colon
[5] = test system: UO-31 renal
[6] = test system: SF-539 CNS
[7] = test system: T-47D breast
[8] = test system: LOX IMVI melanoma
[9] = test system: DU-145 prostate
[10] = test system: PC-3 prostate

SMILES | GI50 [1] | TGI [1] | GI50 [2] | TGI [2] | GI50 [3] | TGI [3] | GI50 [4] | TGI [4] | GI50 [5] | TGI [5] | GI50 [6] | TGI [6] | GI50 [7] | TGI [7] | GI50 [8] | TGI [8] | GI50 [9] | TGI [9] | GI50 [10] | TGI [10]
COc1cc(-c2nn(C)nc2-c2cc3ccccc3s2)cc(OC)c1OC | 2.39 µM | > 100 µM | 0.0403 µM | > 100 µM | 1.6 µM | > 100 µM | 0.0587 µM | > 100 µM | 0.744 µM | > 100 µM | 0.149 µM | 0.903 µM | > 100 µM | > 100 µM | 0.169 µM | > 100 µM | 0.263 µM | > 100 µM | 0.0779 µM | > 100 µM
Clc1ccc(N/N=C/c2ccccn2)nc1 | 0.433 µM | > 94.3 µM | 0.338 µM | > 100 µM | 0.463 µM | > 100 µM | 0.333 µM | > 100 µM | 0.303 µM | 1.57 µM | 0.329 µM | 2.46 µM | 0.349 µM | > 63.5 µM | 0.326 µM | 18.6 µM | 0.445 µM | > 100 µM | 0.578 µM | > 100 µM
COc1cc(C2=Nc3c/c(=C\c4c(O)[nH]c5ccc(Cl)cc45)ccc3=N2)cc(OC)c1OC | 12 µM | 38.8 µM | 1.43 µM | 3.56 µM | 1.5 µM | 6.26 µM | 3.27 µM | 11.6 µM | 2.96 µM | 16.1 µM | 4 µM | 15.9 µM | 9.13 µM | 37.3 µM | 1.74 µM | 4.3 µM | 2.34 µM | 5.19 µM | 2.94 µM | 14.3 µM
CCNC(=O)Nc1ccc(-c2nc3c(c(N4CCOC[C@@H]4C)n2)CCN(C2COC2)C3)cc1 | 0.302 µM and 0.384 µM | > 37.1 µM | 0.121 µM and 0.115 µM | > 100 µM | 0.392 µM and 0.267 µM | > 48.2 µM | 0.638 µM and 0.45 µM | > 100 µM | 0.101 µM and 0.0801 µM | 2.39 µM and 1.45 µM | 0.247 µM and 0.336 µM | 1.85 µM and 3.53 µM | 0.0498 µM and 0.0316 µM | 0.591 µM and 0.381 µM | 0.411 µM and 0.329 µM | > 100 µM | 0.562 µM and 0.435 µM | > 100 µM | 0.166 µM and 0.106 µM | –
Nc1cccc(-c2nc3sccn3c2-c2ccnc(NCCCNS(=O)(=O)c3ccc(C(F)(F)F)cc3)n2)c1 | 13.7 µM | 95.1 µM | 4.04 µM | 18.5 µM | 4.85 µM | 94 µM | 3.33 µM | 29.9 µM | 3.2 µM | 27.5 µM | 6.66 µM | 29.6 µM | 1.37 µM | 5.18 µM | 3.27 µM | 16.1 µM | 4.26 µM | 35.6 µM | 2.41 µM | 11.9 µM
CN(C)c1cc2c(Nc3ccc4nc(Cc5ccccc5)[nH]c4c3)ncnc2cn1 | 16.6 µM | > 25 µM | > 15.3 µM | > 25 µM | > 17.4 µM | > 25 µM | > 16.6 µM | > 25 µM | 12.2 µM | > 25 µM | 14.4 µM | > 25 µM | > 16.4 µM | > 25 µM | > 17.4 µM | > 25 µM | 12.1 µM | > 25 µM | > 25 µM | > 25 µM
C[C@@]12CCC[C@@](C)(C(=O)O)C1CC[C@]13C=C(CO)[C@](O)(CCC12)C3 (stereo partly drawn) | > 100 µM | > 100 µM | > 100 µM | > 100 µM | > 100 µM | > 100 µM | > 100 µM | > 100 µM | > 100 µM | > 100 µM | > 100 µM | > 100 µM | > 100 µM | > 100 µM | > 100 µM | > 100 µM | > 100 µM | > 100 µM | > 100 µM | > 100 µM
Cc1cc(N2CCOCC2)nc(N(CCNc2ccnc3cc(Cl)ccc23)Cc2ccco2)n1 | 9.4 µM | 44.6 µM | 3.15 µM | 18.9 µM | 3.16 µM | 13.4 µM | 3.6 µM | 34.9 µM | 1.99 µM | 6.97 µM | 1.95 µM | 4.41 µM | 2.13 µM | 4.92 µM | 2.03 µM | 4.91 µM | 6.85 µM | 26.5 µM | 4.38 µM | 20.6 µM
COc1c(Nc2ncc(Cl)c(N[C@@H]3[C@H]4C=CC(C4)[C@@H]3C(N)=O)n2)ccc2c1CC[C@@H](N1CCOCC1)CC2 | 1.4 µM | 17.8 µM | 2.01 µM | 17.1 µM | 2.24 µM | 9.36 µM | 3.28 µM | 15.3 µM | 2.07 µM | 10.7 µM | 2.3 µM | 8.01 µM | 7.78 µM | 25.5 µM | 2.11 µM | 6.23 µM | 4.88 µM | 27.2 µM | 3.94 µM | 23.7 µM
O=[N+]([O-])c1ccc(Oc2cccnc2)c([N+](=O)[O-])c1 | 3.26 µM | 16.9 µM | 3.74 µM | 17.6 µM | 2.9 µM | 11.6 µM | 3.75 µM | > 100 µM | 3.07 µM | 16.8 µM | 3.21 µM | 12.1 µM | 7.3 µM | 30.1 µM | 3.16 µM | 13.3 µM | 2.96 µM | 7.44 µM | 4.98 µM | 36.4 µM
NC(=O)c1cccc(N)c1 | > 100 µM | > 100 µM | > 100 µM | > 100 µM | > 100 µM | > 100 µM | > 100 µM | > 100 µM | > 100 µM | > 100 µM | > 100 µM | > 100 µM | > 100 µM | > 100 µM | > 100 µM | > 100 µM | > 100 µM | > 100 µM | > 100 µM | > 100 µM
COc1cc2c3c(n(CCCN=[N+]=[N-])c(=O)c2cc1OC)-c1ccc(N)cc1C3=O | 0.633 µM | 1.33 µM | 0.143 µM | – | 0.625 µM | 2.18 µM | 0.378 µM | 2.46 µM | 0.146 µM | 0.803 µM | 0.0919 µM | 0.325 µM | 0.0988 µM | 0.76 µM | 0.0923 µM | 0.466 µM | 0.117 µM | 1.42 µM | 0.27 µM | 3.58 µM
